{
  "source": "patent US20090306228A1",
  "about": "“ACTIVE AGENT DELIVERY SYSTEMS AND METHODS FOR PROTECTING AND ADMINISTERING ACTIVE AGENTS” (priority 2000, published 2009)",
  "key": {"[1]": {"assay": "In vivo performance of polyglutamic acid-AZT conjugate lot TM-113, plasma AZT by ELISA", "design": "species or system Sprague-Dawley rats", "conditions": "for Plasma concentration of individual rats: Rat #1-#5", "procedure": "[…]. Polyglutarnic acid-AZT conjugate was given to five rats at a dose containing 15 mg/kg of AZT."}, "in vivo": {"assay": "in vivo", "conditions": "male, Sprague-Dawley, rat, plasma, po"}, "[2]": {"conditions": "after oral administration; cited from earlier work"}, "[3]": {"conditions": "female, Sprague Dawley, rat, in vivo, po"}, "pepsin": {"target": "pepsin (Sus scrofa, UniProt P00791)", "sequence (P00791 60-385)": "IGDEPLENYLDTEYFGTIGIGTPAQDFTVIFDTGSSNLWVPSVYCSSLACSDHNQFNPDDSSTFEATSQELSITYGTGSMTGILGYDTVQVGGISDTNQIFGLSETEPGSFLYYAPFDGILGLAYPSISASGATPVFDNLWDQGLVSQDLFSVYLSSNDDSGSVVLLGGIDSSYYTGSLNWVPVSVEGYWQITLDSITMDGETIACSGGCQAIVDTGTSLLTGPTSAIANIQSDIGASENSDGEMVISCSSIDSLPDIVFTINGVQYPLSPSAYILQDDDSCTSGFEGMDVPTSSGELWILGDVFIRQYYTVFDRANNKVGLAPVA", "conditions": "pig, 4 h, pH 1.2"}, "pancreatin": {"tested_on": "pancreatin", "conditions": "pig, 24 h, pH 7.5"}, "[4]": {"tested_on": "protease (type XIV, pronase)", "conditions": "Streptomyces griseus, 24 h, pH 8.4"}, "[5]": {"assay": "In vivo performance of polyserine-naltrexone conjugate lot BB-272, serum naltrexone by ELISA", "conditions": "for Serum concentration of individual rats: 3.6 mg naltrexone (12 mg conjugate BB-272), Rat #1-#4", "procedure": "No excipients were added to the capsules."}, "[6]": {"assay": "In vivo performance of polyserine-naltrexone conjugate lot BB-301, serum naltrexone by ELISA", "conditions": "oral capsule; for Serum concentration of individual rats: 3.6 mg naltrexone (12.9 mg conjugate BB-301), Rat #1-#5"}, "[7]": {"conditions": "male, Sprague-Dawley, rat, plasma, po, 15 mg/kg"}, "[8]": {"conditions": "male, Sprague Dawley, rat, in vivo, po, 3.6 mg"}},
  "note": "Values joined by “and” are separate entries in the source; they are usually repeats but may differ in a detail not shown here. Identical values can stand only once.",
  "data": [
    {"smiles": "Cc1cn([C@H]2C[C@H](N=[N+]=[N-])[C@@H](CO)O2)c(=O)[nH]c1=O", "note": "[AZT, 3′-azido-3′-deoxythymidine]", "values": [
      {"measurement": "AUC(0-t)", "setting": "[1]; [7]", "value": 4040, "unit": "ng·h/mL"},
      {"measurement": "Cmax", "setting": "[1]; [7]", "value": 2390, "unit": "ng/mL"},
      {"measurement": "Tmax", "setting": "[1]; [7]", "value": 30, "unit": "min"},
      {"measurement": "concentration at 0 h", "setting": "[1]; male, Sprague-Dawley, rat, plasma, po, 15 mg/kg, 15 mg/kg of AZT, lot TM-113, 0 hours", "value": 7, "unit": "ng/mL"},
      {"measurement": "concentration at 0.5 h", "setting": "[1]; male, Sprague-Dawley, rat, plasma, po, 15 mg/kg, 15 mg/kg of AZT, lot TM-113, 0.5 hours", "value": 2390, "unit": "ng/mL"},
      {"measurement": "concentration at 3 h", "setting": "[1]; male, Sprague-Dawley, rat, plasma, po, 15 mg/kg, 15 mg/kg of AZT, lot TM-113, 3 hours", "value": 223, "unit": "ng/mL"},
      {"measurement": "concentration at 5 h", "setting": "[1]; male, Sprague-Dawley, rat, plasma, po, 15 mg/kg, 15 mg/kg of AZT, lot TM-113, 5 hours", "value": 49, "unit": "ng/mL"},
      {"measurement": "concentration at 8 h", "setting": "[1]; male, Sprague-Dawley, rat, plasma, po, 15 mg/kg, 15 mg/kg of AZT, lot TM-113, 8 hours", "value": 11, "unit": "ng/mL"},
      {"measurement": "concentration at 12 h", "setting": "[1]; male, Sprague-Dawley, rat, plasma, po, 15 mg/kg, 15 mg/kg of AZT, lot TM-113, 12 hours", "value": 36, "unit": "ng/mL"},
      {"measurement": "concentration at 24 h", "setting": "[1]; male, Sprague-Dawley, rat, plasma, po, 15 mg/kg, 15 mg/kg of AZT, lot TM-113, 24 hours", "value": 8, "unit": "ng/mL"},
      {"measurement": "time at which AZT plasma levels spiked", "setting": "[1]; oral, 15 mg/kg of AZT", "value": 0.5, "unit": "h"},
      {"measurement": "time for which plasma levels of AZT remained elevated", "setting": "[1]; oral, 15 mg/kg of AZT, lot TM-113", "value": "< 3", "unit": "h"},
      {"measurement": "Plasma concentration of individual rats", "setting": "[1]; oral, 15 mg/kg of AZT, lot TM-113, 0 hours, 15 mg/kg", "value": "6 ng/mL and 4 ng/mL and 2 ng/mL and 9 ng/mL and 14 ng/mL"},
      {"measurement": "Plasma concentration of individual rats", "setting": "[1]; oral, 15 mg/kg of AZT, lot TM-113, 0.5 hours, 15 mg/kg", "value": "4520 ng/mL and 2108 ng/mL and 2657 ng/mL and 1978 ng/mL and 690 ng/mL"},
      {"measurement": "Plasma concentration of individual rats", "setting": "[1]; oral, 15 mg/kg of AZT, lot TM-113, 3 hours, 15 mg/kg", "value": "598 ng/mL and 132 ng/mL and 200 ng/mL and 94 ng/mL and 93 ng/mL"},
      {"measurement": "Plasma concentration of individual rats", "setting": "[1]; oral, 15 mg/kg of AZT, lot TM-113, 5 hours, 15 mg/kg", "value": "79 ng/mL and 25 ng/mL and 78 ng/mL and 26 ng/mL and 39 ng/mL"},
      {"measurement": "Plasma concentration of individual rats", "setting": "[1]; oral, 15 mg/kg of AZT, lot TM-113, 8 hours, 15 mg/kg", "value": "16 ng/mL and 18 ng/mL and 12 ng/mL and 4 ng/mL and 5 ng/mL"},
      {"measurement": "Plasma concentration of individual rats", "setting": "[1]; oral, 15 mg/kg of AZT, lot TM-113, 12 hours, 15 mg/kg", "value": "101 ng/mL and 38 ng/mL and 28 ng/mL and 2 ng/mL and 6 ng/mL"},
      {"measurement": "Plasma concentration of individual rats", "setting": "[1]; oral, 15 mg/kg of AZT, lot TM-113, 24 hours, 15 mg/kg", "value": "13 ng/mL and 12 ng/mL and 4 ng/mL and 8 ng/mL and 3 ng/mL"},
      {"measurement": "Tmax", "setting": "in vivo", "value": 30, "unit": "min"}
    ]},
    {"smiles": "CC1OC(OC2C(O)CC(OC3C(O)CC(O[C@H]4CCC5(C)C(CCC6[C@@H]5CC(O)C5(C)[C@@H](C7=CC(=O)OC7)CCC65O)C4)OC3C)OC2C)CC(O)C1O", "note": "(stereo partly drawn) [Digoxin, digoxin]", "values": [
      {"measurement": "time until an effect is evident", "setting": "[2]", "value": "1 to 2", "unit": "h"}
    ]},
    {"smiles": "NS(=O)(=O)c1cc(C(=O)O)c(NCc2ccco2)cc1Cl", "note": "[Furosemide]", "values": [
      {"measurement": "9 hour serum level as percent of its 3 hour level", "setting": "[3]", "value": 59.8, "unit": "%"}
    ]},
    {"smiles": "Cc1ccc(C)c(OCCCC(C)(C)C(=O)O)c1", "note": "[Gemfibrozil, 5-(2,5-dimethylphenoxy)-2,2-dimethylpentanoic acid]", "values": [
      {"measurement": "Stomach (simulator, release of active agent from peptide conjugate)", "setting": "pepsin", "value": 0, "unit": "%"},
      {"measurement": "Intestine (simulator, release of active agent from peptide conjugate)", "setting": "pancreatin", "value": 3.60, "unit": "%"},
      {"measurement": "Pronase (release of active agent from peptide conjugate)", "setting": "[4]", "value": 2, "unit": "%"}
    ]},
    {"smiles": "Nc1ccc(O)c(C(=O)O)c1", "note": "[Mesalamine, 5-amino-2-hydroxybenzoic acid]", "values": [
      {"measurement": "Stomach (simulator, release of active agent from peptide conjugate)", "setting": "pepsin", "value": 11, "unit": "%"},
      {"measurement": "Intestine (simulator, release of active agent from peptide conjugate)", "setting": "pancreatin", "value": 10, "unit": "%"},
      {"measurement": "Pronase (release of active agent from peptide conjugate)", "setting": "[4]", "value": 46, "unit": "%"}
    ]},
    {"smiles": "CCN(CC)CCNC(=O)c1cc(Cl)c(N)cc1OC", "note": "[Metoclopramide]", "values": [
      {"measurement": "Stomach (simulator, release of active agent from peptide conjugate)", "setting": "pepsin", "value": 0, "unit": "%"},
      {"measurement": "Intestine (simulator, release of active agent from peptide conjugate)", "setting": "pancreatin", "value": 95.20, "unit": "%"},
      {"measurement": "Pronase (release of active agent from peptide conjugate)", "setting": "[4]", "value": 6.50, "unit": "%"}
    ]},
    {"smiles": "Cc1ncc([N+](=O)[O-])n1CCO", "note": "[Metronidazole]", "values": [
      {"measurement": "Stomach (simulator, release of active agent from peptide conjugate)", "setting": "pepsin", "value": 20.20, "unit": "%"},
      {"measurement": "Intestine (simulator, release of active agent from peptide conjugate)", "setting": "pancreatin", "value": 64.30, "unit": "%"},
      {"measurement": "Pronase (release of active agent from peptide conjugate)", "setting": "[4]", "value": 28.90, "unit": "%"}
    ]},
    {"smiles": "O=C1CC[C@@]2(O)[C@H]3Cc4ccc(O)c5c4[C@@]2(CCN3CC2CC2)[C@H]1O5", "note": "[Naltrexone]", "values": [
      {"measurement": "concentration at 2 h", "setting": "[5]; [8]", "value": 46, "unit": "ng/mL"},
      {"measurement": "concentration at 4 h", "setting": "[5]; [8]", "value": 11, "unit": "ng/mL"},
      {"measurement": "concentration at 6 h", "setting": "[5]; [8]", "value": 9, "unit": "ng/mL"},
      {"measurement": "concentration at 9 h", "setting": "[5]; [8]", "value": 3, "unit": "ng/mL"},
      {"measurement": "Serum concentration of individual rats", "setting": "[5]; oral capsule, 2 hours", "value": "33 ng/mL and 91 ng/mL and 37 ng/mL and 22 ng/mL"},
      {"measurement": "Serum concentration of individual rats", "setting": "[5]; oral capsule, 4 hours", "value": "6 ng/mL and 25 ng/mL and 12 ng/mL and 3 ng/mL"},
      {"measurement": "Serum concentration of individual rats", "setting": "[5]; oral capsule, 6 hours", "value": "13 ng/mL and 10 ng/mL and 8 ng/mL and 6 ng/mL"},
      {"measurement": "Serum concentration of individual rats", "setting": "[5]; oral capsule, 9 hours", "value": "3 ng/mL and 6 ng/mL and 2 ng/mL and 1 ng/mL"},
      {"measurement": "Serum concentration of individual rats", "setting": "[5]; oral capsule, 12 hours", "value": "2 ng/mL (2×) and 1 ng/mL"},
      {"measurement": "Mean serum concentration +/- SD", "setting": "[5]; oral capsule, 3.6 mg naltrexone, lot BB-272, 12 hours", "value": "1 ± 1", "unit": "ng/mL"},
      {"measurement": "time at which serum levels spiked", "setting": "[5]; oral capsule, lot BB-272, 2 hours was the first measurement", "value": 2, "unit": "h"},
      {"measurement": "Serum concentration of individual rats", "setting": "[6]; 0.5 hours", "value": "39 ng/mL and 141 ng/mL and 128 ng/mL and 126 ng/mL and 142 ng/mL"},
      {"measurement": "Serum concentration of individual rats", "setting": "[6]; 3 hours", "value": "91 ng/mL and 62 ng/mL and 44 ng/mL and 30 ng/mL and 46 ng/mL"},
      {"measurement": "Serum concentration of individual rats", "setting": "[6]; 5 hours", "value": "45 ng/mL and 193 ng/mL and 16 ng/mL and 8 ng/mL and 19 ng/mL"},
      {"measurement": "Serum concentration of individual rats", "setting": "[6]; 8 hours", "value": "19 ng/mL and 6 ng/mL and 2 ng/mL and 5 ng/mL and 4 ng/mL"},
      {"measurement": "Serum concentration of individual rats", "setting": "[6]; 12 hours", "value": "3 ng/mL (2×) and 1 ng/mL and 2 ng/mL (2×)"},
      {"measurement": "Serum concentration of individual rats", "setting": "[6]; 15 hours", "value": "4 ng/mL and 1 ng/mL (2×) and 2 ng/mL (2×)"},
      {"measurement": "Serum concentration of individual rats", "setting": "[6]; 24 hours", "value": "2 ng/mL (2×) and 1 ng/mL (2×) and 3 ng/mL"},
      {"measurement": "time at which naltrexone serum levels spiked", "setting": "[6]; equal dose, lot BB-301", "value": 0.5, "unit": "h"},
      {"measurement": "time for which serum levels of naltrexone remained elevated", "setting": "[6]; equal dose, lot BB-301", "value": "< 8", "unit": "h"}
    ]}
  ]
}
